# According to patent publication US10098924B1, “Anticancer extracts of Alpinia officinarum hance” (KING SAUD UNIVERSITY, priority 2018, dated 2018):
# Structures can show the parent of a compound that is named as a salt.
# How the values were obtained:
# Assay type in all cases: cell-based
# [1] = system: A-549 (Lung carcinoma) cells; experiment: MTT cell viability assay, A-549 cells; conditions: Homo sapiens, A549, about 24 hours incubation
# Protocol: (§1) Briefly, the cell lines were suspended in medium at concentration of about 5×10^4 cells per well in Corning® 96-well tissue culture plates and incubated for about 24 hours. Extracts prepared according to Example 1 were rehydrated, diluted ten times, and each dilution was added to a well of a 96-well plate (using six replicates). Six vehicle controls with media or 0.5% DMSO were run for each 96 well plate as a control. After incubation for about 24 hours, the number of viable cells was determined by the MTT assay method. Briefly, the media was removed from the 96-well plates and replaced with about 100 μl of fresh culture RPMI 1640 medium without phenol red, then about 10 μl of about 12 mM MTT (Sigma) stock solution (5 mg of MTT in about 1 mL of PBS) was added to each well, including the untreated controls. The 96-well plates were then incubated at about 37° C. and at about 5% CO2 for about 4 hours. An 85 μl aliquot of the media was removed from the wells, and 50 μl of DMSO was added to each well and mixed thoroughly with the pipette and incubated at about 37° C. for about 10 minutes. The optical density was measured at 590 nm with a microplate reader to determine the number of viable cells. The percentage of viability was calculated as: (ODt/ODc)×100%, where ODt is the mean optical density of wells treated with the tested sample and ODe is the mean optical density of untreated cells. […]
# [2] = system: CACO (colorectal carcinoma) cells; experiment: MTT cell viability assay, CACO cells; conditions: Homo sapiens, about 24 hours incubation
# Protocol: as §1
# [3] = system: HCT-116 (Colon carcinoma) cells; experiment: MTT cell viability assay, HCT-116 cells; conditions: Homo sapiens, about 24 hours incubation
# Protocol: as §1
# [4] = system: HeLa (Cervical carcinoma) cells; experiment: MTT cell viability assay, HeLa cells; conditions: Homo sapiens, about 24 hours incubation
# Protocol: as §1
# [5] = system: PC3 (prostate cancer) cells; experiment: MTT cell viability assay, PC3 cells; conditions: Homo sapiens, PC-3, about 24 hours incubation
# Protocol: as §1
structure (smiles),measurement,setting,value
"CC[C@]1(O)C[C@@H]2CN(CCc3c([nH]c4ccccc34)[C@@](C(=O)OC)(c3cc4c(cc3OC)N(C)[C@H]3[C@@](O)(C(=O)OC)[C@H](OC(C)=O)[C@]5(CC)C=CCN6CC[C@]43[C@@H]65)C2)C1 [Vinblastine Sulfate, vinblastine sulfate]",IC50,[1],24.6 ± 0.7 µg/mL
same,IC50,[2],30.3 ± 1.4 µg/mL
same,IC50,[3],3.5 ± 0.2 µg/mL
same,IC50,[4],59.7 ± 2.1 µg/mL
same,IC50,[5],21.2 ± 0.9 µg/mL
